The target in this test is T1, α4β1 integrin (Homo sapiens, UniProt P05556+P13612).
T1 construct: endogenous in cells; host or cells: Ramos cells
Kind of test: Adhesion of calcein-labeled Ramos cells to CS1 (fibronectin) peptide conjugated ovalbumin. As to conditions: Ramos cell adhesion to CS1 conjugated ovalbumin, 30 minutes at 37° C. The test is classed as cell-based. How it is done:
A procedure in which a 26-amino acid peptide containing the CS1 sequence of fibronectin with an N-terminal Cys ([…]) was coupled to maleimide activated ovalbumin was used to determine the efficacy of the compounds synthesized. Bovine serum albumin (BSA) and CS1 conjugated ovalbumin were coated onto 96-well polystyrene plates at 0.5 μg/ml in TBS (50 mM TRIS, pH 7.5; 150 mM NaCl) at 4° C. for 16 hours. The plates were washed three times with TBS and blocked with TBS containing 3% BSA at room temperature for 4 hours. Blocked plates were washed three times in binding buffer (TBS; 1 mM MgCl2; 1 mM CaCl2; 1 mM MnCl2) prior to assay. Ramos cells fluorescently labeled with calcein AM were resuspended in binding buffer (10^7 cells/ml) and diluted 1:2 with same buffer with or without compound. 100 μM of compound was added. The cells were added immediately to the wells (2.5×10^5 cells/well) and incubated for 30 minutes at 37° C. Following three washes with binding buffer, adherent cells were lysed and quantitated using a fluorometer. IC50 is defined as the dose required to give 50% inhibition, measured in μM for Tables 2 and 4. The lower the IC50 value and the greater the percentage of inhibition, the more efficient the compound is at prevention of cell adhesion.

T1 sequence (P13612 34-1032): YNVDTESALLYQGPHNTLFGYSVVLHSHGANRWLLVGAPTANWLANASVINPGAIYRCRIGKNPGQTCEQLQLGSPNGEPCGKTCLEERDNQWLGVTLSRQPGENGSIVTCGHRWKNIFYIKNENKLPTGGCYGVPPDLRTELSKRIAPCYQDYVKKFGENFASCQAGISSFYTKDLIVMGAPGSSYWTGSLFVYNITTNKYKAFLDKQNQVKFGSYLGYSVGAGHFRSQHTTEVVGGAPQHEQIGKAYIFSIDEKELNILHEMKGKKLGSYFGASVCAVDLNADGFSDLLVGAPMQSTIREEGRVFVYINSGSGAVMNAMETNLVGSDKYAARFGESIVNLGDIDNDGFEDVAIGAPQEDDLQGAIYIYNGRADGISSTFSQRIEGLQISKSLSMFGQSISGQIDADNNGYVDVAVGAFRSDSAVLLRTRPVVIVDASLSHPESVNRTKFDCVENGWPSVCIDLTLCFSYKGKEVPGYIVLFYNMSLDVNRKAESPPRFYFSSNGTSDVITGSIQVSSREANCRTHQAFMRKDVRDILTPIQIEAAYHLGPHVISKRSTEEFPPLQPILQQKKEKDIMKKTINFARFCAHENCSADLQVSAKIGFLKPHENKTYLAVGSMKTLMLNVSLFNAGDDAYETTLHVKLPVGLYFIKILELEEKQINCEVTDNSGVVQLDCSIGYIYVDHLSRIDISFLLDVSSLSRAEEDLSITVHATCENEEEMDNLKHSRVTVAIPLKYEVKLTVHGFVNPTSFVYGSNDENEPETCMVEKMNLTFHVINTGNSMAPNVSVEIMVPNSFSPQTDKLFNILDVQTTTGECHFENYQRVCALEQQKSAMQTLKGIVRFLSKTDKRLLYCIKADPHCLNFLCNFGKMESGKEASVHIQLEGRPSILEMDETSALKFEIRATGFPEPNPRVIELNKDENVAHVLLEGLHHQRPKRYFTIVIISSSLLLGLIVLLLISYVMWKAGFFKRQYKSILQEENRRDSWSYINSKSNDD
T1 sequence (P05556 21-798): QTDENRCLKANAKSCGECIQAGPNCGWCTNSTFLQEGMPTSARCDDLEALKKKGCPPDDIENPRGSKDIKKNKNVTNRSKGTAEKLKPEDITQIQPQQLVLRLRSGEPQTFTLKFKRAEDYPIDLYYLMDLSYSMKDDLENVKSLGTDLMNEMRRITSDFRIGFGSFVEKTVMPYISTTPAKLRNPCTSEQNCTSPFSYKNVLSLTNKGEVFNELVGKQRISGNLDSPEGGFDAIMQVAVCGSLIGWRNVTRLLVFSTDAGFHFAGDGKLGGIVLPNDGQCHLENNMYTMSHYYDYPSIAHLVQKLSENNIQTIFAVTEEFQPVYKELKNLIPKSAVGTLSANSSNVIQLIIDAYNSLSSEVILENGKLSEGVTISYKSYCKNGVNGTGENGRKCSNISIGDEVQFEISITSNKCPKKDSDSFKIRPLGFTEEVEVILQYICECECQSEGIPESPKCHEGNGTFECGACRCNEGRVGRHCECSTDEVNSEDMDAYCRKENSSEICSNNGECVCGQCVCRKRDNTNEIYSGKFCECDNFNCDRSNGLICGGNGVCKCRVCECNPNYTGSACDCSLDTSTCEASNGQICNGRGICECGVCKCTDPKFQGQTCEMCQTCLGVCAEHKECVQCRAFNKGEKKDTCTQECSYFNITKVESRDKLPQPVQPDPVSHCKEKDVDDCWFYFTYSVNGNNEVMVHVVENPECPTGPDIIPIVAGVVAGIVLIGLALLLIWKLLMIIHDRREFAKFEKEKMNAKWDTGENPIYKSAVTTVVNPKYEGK

As to `O=C(O)CC(NC(=O)Nc1c(O)ccn(Cc2ccccc2Cl)c1=O)c1cccc(Cl)c1` (stereo not drawn), the 50% inhibitory concentration (IC50) was 30 nM (Table 3) and 30 nM (Table 4).

For the compound `O=C(O)CC(NC(=O)Nc1c(O)ccn(Cc2ccccc2Cl)c1=O)c1ccc(Cl)cc1` (stereo not drawn), the 50% inhibitory concentration (IC50) is 30 nM (Table 3) and 30 nM (Table 4).

`O=C(O)CC(NC(=O)Nc1c(O)ccn(Cc2ccccc2Cl)c1=O)c1ccc(Cl)c(Cl)c1` (stereo not drawn): the IC50 by setting is: (Table 3) 40 nM; (Table 4) 40 nM. On to `O=C(Nc1cccn(Cc2ccccc2Cl)c1=O)N[C@@H](C(=O)O)c1ccccc1`, for which the IC50 (Table 4) is 80000 nM. On to `O=C(Nc1cccn(Cc2ccccc2Cl)c1=O)N[C@H](Cc1ccccc1)C(=O)O`, for which the 50% inhibitory concentration (IC50) (Table 4) is 50000 nM. Consider `O=C(O)C[C@@H](NC(=O)Nc1cccn(Cc2ccccc2Cl)c1=O)c1ccc2c(c1)OCO2`, for which the IC50 (Table 4) was 2000 nM.

Regarding `Cc1ccn(Cc2ccccc2Cl)c(=O)c1NC(=O)N[C@H](C)CC(=O)O`, the IC50 (Table 3) was 300 nM. The same measure, in the same setting: the value for `O=C(O)C[C@H](NC(=O)Nc1c(O)ccn(Cc2ccccc2Cl)c1=O)c1ccc2c(c1)OCO2` was 20 nM. As to `Cc1ccc(Cn2cccc(NC(=O)N[C@@H](CC(=O)O)c3ccc4c(c3)OCO4)c2=O)cc1`, the concentration for half-maximal inhibition (IC50) (Table 4) is 1000 nM. Same read-out and setting: for `O=C(O)C[C@H](NC(=O)Nc1cccn(CCc2cccs2)c1=O)c1ccc2c(c1)OCO2` the value was 15000 nM. Take `Cc1ccccc1NC(=O)Nc1ccc(Cn2cccc(NC(=O)N[C@@H](CC(=O)O)c3ccc4c(c3)OCO4)c2=O)cc1`: the half-maximal inhibitory concentration (IC50) (Table 2) was 1 nM.

For `O=C(O)C[C@H](NC(=O)Nc1cccn(Cc2ccccc2)c1=O)c1ccc2c(c1)OCO2`, under “Table 4”, the IC50 is 500 nM.

For `O=C(O)C[C@H](NC(=O)Nc1ccc(=O)n(Cc2ccccc2)c1)c1ccc2c(c1)OCO2`, the IC50 (Table 4) is 500 nM. With `O=C(O)C[C@H](NC(=O)N[C@@H]1CCCN(Cc2cccs2)C1=O)c1ccc2c(c1)OCO2`, for the setting “Table 2”, the IC50 was 2000 nM. Still for that read-out and setting: the value for `O=C(O)C[C@H](NC(=O)N[C@H]1CCCCN(Cc2cccs2)C1=O)c1ccc2c(c1)OCO2` was 15 nM.

Consider `Cc1ccccc1NC(=O)Nc1ccc(CN2CCC[C@H](NC(=O)N[C@@H](CC(=O)O)c3ccc4c(c3)OCO4)C2=O)cc1`, for which the IC50 (Table 2) is 0.3 nM. As for `CCCCN(C(=O)N[C@@H](CC(=O)O)c1ccc2c(c1)OCO2)c1cccn(Cc2cccs2)c1=O`, the IC50 (Table 2) was 20000 nM.

In the case of `O=C(O)C[C@H](NC(=O)Nc1cccn(Cc2cccs2)c1=O)c1ccc2c(c1)CCO2`, the IC50 (Table 4) was 140 nM. On the same count and under the same terms, the value for `O=C(O)C[C@H](NC(=O)Nc1cccn(Cc2cccs2)c1=O)c1cccc(F)c1` was 3000 nM. As to `CC(C)(C)c1ccc([C@H](CC(=O)O)NC(=O)Nc2cccn(Cc3cccs3)c2=O)cc1`, where the note is “Table 4”, the 50% inhibitory concentration (IC50) is 2000 nM. As for `O=C(O)C[C@H](NC(=O)Nc1cccn(Cc2cccs2)c1=O)c1ccc(F)c(C(F)(F)F)c1`, the IC50 (Table 4) is 350 nM.

As to `Cc1ccc([C@H](CC(=O)O)NC(=O)Nc2cccn(Cc3ccccc3C)c2=O)cc1`, the IC50 (Table 4) was 100 nM. On the same count and under the same terms, for `Cc1ccc([C@H](CC(=O)O)NC(=O)Nc2cccn(Cc3ccccc3C(F)(F)F)c2=O)cc1` the value was 1000 nM; for `Cc1ccc([C@H](CC(=O)O)NC(=O)Nc2cccn(Cc3ccccc3-c3ccccc3)c2=O)cc1`, 2500 nM; for `COc1cc([C@H](CC(=O)O)NC(=O)Nc2cccn(Cc3ccccc3Br)c2=O)cc(OC)c1OC`, 80 nM. On the same count and under the same terms, the value for `Cc1ccc([C@H](CC(=O)O)NC(=O)Nc2cccn(Cc3ccccc3Br)c2=O)cc1` was 50 nM; that for `Cc1cc(C)cc([C@H](CC(=O)O)NC(=O)Nc2cccn(Cc3ccccc3Cl)c2=O)c1` was 100 nM; that for `O=C(O)C[C@H](NC(=O)Nc1cccn(Cc2ccccc2Cl)c1=O)c1ccc2c(c1)CCO2` was 40 nM. Still for that read-out and setting: the value for `Cc1cc([C@H](CC(=O)O)NC(=O)Nc2cccn(Cc3ccccc3Cl)c2=O)ccc1O` was 70 nM. With `COc1ccc([C@H](CC(=O)O)NC(=O)Nc2cccn(Cc3ccccc3Cl)c2=O)cc1C`, the concentration for half-maximal inhibition (IC50) (Table 4) is 40 nM.

As to `Cc1ccc([C@H](CC(=O)O)NC(=O)Nc2cccn(Cc3ccccc3Cl)c2=O)cc1`, under “Table 4”, the IC50 is 100 nM. Turning to `Cc1ccc([C@H](CC(=O)O)NC(=O)Nc2cccn(Cc3ccccc3Cl)c2=O)cc1C`, the IC50 (Table 4) is 90 nM. As to `O=C(O)C[C@H](NC(=O)Nc1cccn(Cc2ccccc2Cl)c1=O)c1ccc(F)c(C(F)(F)F)c1`, for the setting “Table 4”, the IC50 is 200 nM. The same measure, in the same setting: the value for `COc1cc([C@H](CC(=O)O)NC(=O)Nc2cccn(Cc3ccccc3Cl)c2=O)cc(OC)c1OC` was 40 nM; that for `O=C(O)C[C@H](NC(=O)Nc1cccn(Cc2ccccc2Cl)c1=O)c1ccccc1` was 100 nM.

As for `COc1ccc([C@H](CC(=O)O)NC(=O)Nc2cccn(Cc3ccccc3Cl)c2=O)cc1`, the 50% inhibitory concentration (IC50) (Table 4) is 100 nM. As for `Cc1ccc([C@H](CC(=O)O)NC(=O)Nc2c(Nc3ccccn3)ccn(Cc3ccccc3Cl)c2=O)cc1`, the 50% inhibitory concentration (IC50) (Table 3) is 15 nM.

For `Cc1ccc([C@H](CC(=O)O)NC(=O)Nc2c(NCc3ccccn3)ccn(Cc3ccccc3Cl)c2=O)cc1`, the half-inhibitory concentration (IC50) (Table 3) is 15 nM. With `Cc1ccc([C@H](CC(=O)O)NC(=O)Nc2c(NCc3cccnc3)ccn(Cc3ccccc3Cl)c2=O)cc1`, where the note is “Table 3”, the IC50 is 20 nM. For `Cc1ccc([C@H](CC(=O)O)NC(=O)Nc2c(Nc3ccccc3)ccn(Cc3ccccc3Cl)c2=O)cc1`, the IC50 (Table 3) was 20 nM. Still for that read-out and setting: for `CCCc1ccn(Cc2ccccc2Cl)c(=O)c1NC(=O)N[C@@H](CC(=O)O)c1ccc(C)cc1` the value was 4 nM; for `Cc1ccc([C@H](CC(=O)O)NC(=O)Nc2c(C)nc(C)n(Cc3ccccc3Cl)c2=O)cc1`, 10 nM. On to `Cc1ccc([C@H](CC(=O)O)NC(=O)Nc2c(N3CCOCC3)ccn(Cc3ccccc3Cl)c2=O)cc1`, for which the IC50 (Table 3) is 1 nM.

Take `Cc1ccc([C@H](CC(=O)O)NC(=O)Nc2c(N3CCN(C)CC3)ccn(Cc3ccccc3Cl)c2=O)cc1`: for the setting “Table 3”, the IC50 is 3 nM.

In the case of `COCCOCCOCCOc1ccn(Cc2ccccc2Cl)c(=O)c1NC(=O)N[C@@H](CC(=O)O)c1ccc(C)cc1`, the IC50 (Table 3) was 2 nM.

On to `COCCOCCOc1ccn(Cc2ccccc2Cl)c(=O)c1NC(=O)N[C@@H](CC(=O)O)c1ccc(C)cc1`, for which the IC50 (Table 3) was 2 nM. The same measure, in the same setting: the value for `Cc1ccc([C@H](CC(=O)O)NC(=O)Nc2c(Nc3cc(C)no3)ccn(Cc3ccccc3Cl)c2=O)cc1` was 15 nM. `COc1ccn(Cc2ccccc2Cl)c(=O)c1NC(=O)N[C@@H](CC(=O)O)c1ccc(C)cc1`: the half-maximal inhibitory concentration (IC50) (Table 3) was 20 nM. For `Cc1ccc([C@H](CC(=O)O)NC(=O)Nc2c(F)ccn(Cc3ccccc3Cl)c2=O)cc1`, the IC50 (Table 3) was 15 nM. Same read-out and setting: for `O=C(O)C[C@H](NC(=O)Nc1c(O)ccn(Cc2ccccc2Cl)c1=O)c1cccc(F)c1` the value was 40 nM; for `O=C(O)C[C@H](NC(=O)Nc1c(O)ccn(Cc2ccccc2Cl)c1=O)c1ccc(C(F)(F)F)cc1`, 25 nM.

Regarding `CC(C)(C)c1ccc([C@H](CC(=O)O)NC(=O)Nc2c(O)ccn(Cc3ccccc3Cl)c2=O)cc1`, under “Table 3”, the IC50 was 400 nM.

Turning to `O=C(O)C[C@H](NC(=O)Nc1c(O)ccn(Cc2ccccc2Cl)c1=O)c1ccc(F)cc1`, the concentration for half-maximal inhibition (IC50) (Table 3) is 30 nM. With `COc1cc([C@H](CC(=O)O)NC(=O)Nc2c(O)ccn(Cc3ccccc3Cl)c2=O)cc(OC)c1OC`, where the note is “Table 3”, the half-maximal inhibitory concentration (IC50) is 20 nM.

For the compound `COc1ccc([C@H](CC(=O)O)NC(=O)Nc2c(C)ccn(Cc3ccccc3Cl)c2=O)cc1C`, the half-maximal inhibitory concentration (IC50) (Table 3) is 15 nM. Turning to `Cc1ccc([C@H](CC(=O)O)NC(=O)Nc2cccn(Cc3ccccc3F)c2=O)cc1`, under “Table 4”, the IC50 was 100 nM. As for `Cc1ccc([C@H](CC(=O)O)NC(=O)Nc2c(C)ccn(Cc3ccccc3F)c2=O)cc1`, where the note is “Table 3”, the IC50 is 20 nM. Take `Cc1ccc([C@H](CC(=O)O)NC(=O)Nc2cccn(Cc3cccc(Cl)c3Cl)c2=O)cc1`: the IC50 (Table 4) is 350 nM. Same read-out and setting: for `Cc1ccc([C@H](CC(=O)O)NC(=O)Nc2cccn(Cc3ccc(Cl)cc3Cl)c2=O)cc1` the value was 400 nM.

On to `Cc1ccc([C@H](CC(=O)O)NC(=O)Nc2c(C)ccn(Cc3ccc(Cl)cc3Cl)c2=O)cc1`, for which the half-maximal inhibitory concentration (IC50) (Table 3) was 30 nM. For `Cc1ccc([C@H](CC(=O)O)NC(=O)Nc2cccn(Cc3c(Cl)cccc3Cl)c2=O)cc1`, the IC50 (Table 4) was 200 nM. Take `Cc1ccc([C@H](CC(=O)O)NC(=O)Nc2c(C)ccn(Cc3c(Cl)cccc3Cl)c2=O)cc1`: under “Table 3”, the concentration for half-maximal inhibition (IC50) is 20 nM.

`COc1cccc(Cn2cccc(NC(=O)N[C@@H](CC(=O)O)c3ccc(C)cc3)c2=O)c1`: where the note is “Table 4”, the IC50 was 200 nM.

In the case of `Cc1ccc([C@H](CC(=O)O)NC(=O)Nc2c(-c3ccccn3)nc(C)n(Cc3ccccc3)c2=O)cc1`, the half-maximal inhibitory concentration (IC50) reads like this: (Table 3) 25 nM; (Table 4) 25 nM. For the compound `O=C(O)C[C@H](NC(=O)Nc1cccn(Cc2cccs2)c1=O)c1ccc(C(F)(F)F)cc1`, under “Table 4”, the IC50 is 1500 nM. `Cc1ccc([C@H](CC(=O)O)NC(=O)Nc2c(Br)ccn(Cc3ccccc3Cl)c2=O)cc1`: the IC50 (Table 3) was 20 nM.

Consider `Cc1ccc([C@H](CC(=O)O)NC(=O)Nc2c(Cl)ccn(Cc3ccccc3Cl)c2=O)cc1`, for which, where the note is “Table 3”, the half-maximal inhibitory concentration (IC50) was 20 nM. Same read-out and setting: the value for `Cc1ccc([C@H](CC(=O)O)NC(=O)Nc2c(C)ccn(Cc3ccccc3)c2=O)cc1` was 30 nM. With `Cc1ccc([C@H](CC(=O)O)NC(=O)Nc2cccn(Cc3cc(Cl)ccc3Cl)c2=O)cc1`, the IC50 (Table 4) was 150 nM. Consider `Cc1cccc([C@H](CC(=O)O)NC(=O)Nc2cccn(Cc3ccccc3Cl)c2=O)c1`, for which, where the note is “Table 4”, the IC50 is 200 nM. Still for that read-out and setting: for `Cc1ccc([C@H](CC(=O)O)NC(=O)Nc2cccn(Cc3cccs3)c2=O)cc1` the value was 600 nM.

Values taken from patent publication US6972296B2, “Carboxylic acid derivatives that inhibit the binding of integrins to their receptors” (Encysive Pharmaceuticals Inc., priority 1999, dated 2005).
